Measured values taken from patent US20130345205A1, “SUBSTITUTED BICYCLIC ARALKYL PYRAZOLE LACTAM ANALOGS AS ALLOSTERIC MODULATORS OF MGLUR5 RECEPTORS” (Vanderbilt University, priority 2012, published 2013).

How the values were obtained:
human mGluR5 = human mGluR5 (Homo sapiens, UniProt P41594); test: Cell-based functional Ca2+ mobilization assay (FDSS), potentiation of glutamate EC20 response; conditions: H10H cell-line (HEK, recombinant human mGluR5); for Emax: glutamate EC20, maximum average response at a single concentration, percent of maximal glutamate response; for EC50: positive allosteric modulation in presence of glutamate EC20, concentration in mol/L
Chain of human mGluR5 (P41594 21-1180 isoform P41594-2 limits assumed): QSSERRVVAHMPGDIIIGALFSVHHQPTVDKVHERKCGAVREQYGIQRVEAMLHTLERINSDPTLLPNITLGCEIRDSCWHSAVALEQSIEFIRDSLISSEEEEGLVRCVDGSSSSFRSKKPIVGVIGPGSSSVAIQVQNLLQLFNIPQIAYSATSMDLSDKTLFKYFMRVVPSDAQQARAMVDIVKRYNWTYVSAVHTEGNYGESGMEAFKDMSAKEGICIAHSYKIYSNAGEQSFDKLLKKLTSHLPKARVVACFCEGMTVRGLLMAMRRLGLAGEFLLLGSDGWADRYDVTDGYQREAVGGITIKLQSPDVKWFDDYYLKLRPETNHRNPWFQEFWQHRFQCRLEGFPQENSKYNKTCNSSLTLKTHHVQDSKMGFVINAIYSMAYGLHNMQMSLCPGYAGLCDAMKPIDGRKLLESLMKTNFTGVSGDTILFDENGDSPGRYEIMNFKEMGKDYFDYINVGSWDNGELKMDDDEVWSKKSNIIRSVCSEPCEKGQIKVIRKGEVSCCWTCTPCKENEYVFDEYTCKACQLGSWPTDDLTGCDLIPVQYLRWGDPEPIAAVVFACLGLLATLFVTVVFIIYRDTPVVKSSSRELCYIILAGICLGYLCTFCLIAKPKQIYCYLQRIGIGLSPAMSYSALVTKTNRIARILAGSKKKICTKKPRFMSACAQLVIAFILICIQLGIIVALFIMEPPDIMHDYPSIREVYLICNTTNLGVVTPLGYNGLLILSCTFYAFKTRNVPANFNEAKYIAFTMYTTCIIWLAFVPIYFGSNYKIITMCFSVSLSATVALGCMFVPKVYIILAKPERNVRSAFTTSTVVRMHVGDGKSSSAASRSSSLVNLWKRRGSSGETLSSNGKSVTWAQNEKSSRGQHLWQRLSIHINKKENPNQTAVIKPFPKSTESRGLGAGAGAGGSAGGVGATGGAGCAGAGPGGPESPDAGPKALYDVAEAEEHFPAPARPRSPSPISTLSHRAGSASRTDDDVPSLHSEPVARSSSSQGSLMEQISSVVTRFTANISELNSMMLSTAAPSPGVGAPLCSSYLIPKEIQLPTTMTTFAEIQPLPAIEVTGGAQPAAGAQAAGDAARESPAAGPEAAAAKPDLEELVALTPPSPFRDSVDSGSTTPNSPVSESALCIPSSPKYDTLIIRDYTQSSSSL
Source text: Human mGluR5a cDNA in pCMV6-XL6 mammalian expression plasmid was purchased from OriGene Technologies, Inc. (catalogue number SC326357) and subcloned into pcDNA3.1(−). Human embryonic kidney (HEK) 293A cells were then transfected with human mGluR5a pcDNA3.1(−) using LipofectAmine2000 (Invitrogen) and monoclones were selected and tested for functional response using a Ca^2+ mobilization assay. Monoclones were named for the species (“H” for human) plus the location on the plate (e.g. “10H”).
HEK cells transfected with the human mGluR5a receptor (H10H or H12H cell line) were plated at 15,000 cells/well in clear-bottomed poly-D-lysine-coated assay plates (BD Falcon) in glutamate-glutamine-free growth medium and incubated overnight at 37° C. and 5% CO2. Cell-lines used were either the H10H or H12H cell-lines expressing the human mGluR5 receptor. The following day, the growth medium was removed and the cells were washed with assay buffer containing 1× Hank's balanced salt solution (Invitrogen, Carlsbad, Calif.), 20 mM HEPES, 2.5 mM probenecid, pH 7.4 and left with 20 μL of this reagent. Following this step, the cells were loaded with calcium indicator dye, fluo-4 AM, to a final concentration of 2 μM and incubated for 40-45 min at 37° C. The dye solution was removed and replaced with assay buffer. Cell plates were held for 10-15 min at room temperature and were then loaded into the Functional Drug Screening System 6000 (FDSS 6000, Hamamatsu, Japan).
After establishment of a fluorescence baseline for about 3 seconds, the compounds of the present invention were added to the cells, and the response in cells was measured. 2.3 minutes later an EC20 concentration of the mGluR5 receptor agonist glutamate was added to the cells, and the response of the cells was measured for about 1.7 minutes. All test compounds were dissolved and diluted to a concentration of 10 mM in 100% DMSO and then serially diluted into assay buffer for a 2× stock solution in 0.6% DMSO; stock compounds were then added to the assay for a final DMSO concentration of 0.3% after the first addition to the assay well. Calcium fluorescence measures were recorded as fold over basal fluorescence; raw data was then normalized to the maximal response to glutamate. Potentiation of the agonist response of the mGluR5 receptor in the present invention was observed as an increase in response to submaximal concentrations of glutamate in the presence of compound compared to the response to glutamate in the absence of compound.
The concentration-response curves of compounds of the present invention, obtained in the presence of EC20 of mGluR5 receptor agonist glutamate to determine positive allosteric modulation, were generated using Microsoft Excel with IDBS XLFit add-ins. The raw data file containing all time points was used as the data source in the analysis template. This was saved by the FDSS as a tab-delimited text file. Data were normalized using a static ratio function (F/F0) for each measurement of the total 350 values per well divided by each well's initial value. Data was then reduced as to peak amplitudes (Max-Initial Min) using a time range that starts approximately 1 second after the glutamate EC20 addition and continues for approximately 40 seconds. This is sufficient time to capture the peak amplitude of the cellular Calcium response. Individual amplitudes were expressed as % EMax by multiplying each amplitude by 100 and then dividing the product by the mean of the amplitudes derived from the glutamate ECMax-treated wells. pEC50 values for test compounds were generated by fitting the normalized values versus the log of the test compound concentration (in mol/L) using a 4 parameter logistic equation where none of the parameters were fixed. Each of the three values collected at each concentration of test compound were weighted evenly. Individual values falling outside the 95% prediction limits of the curve fit were automatically excluded from the fit. […]

SMILES | melting point | Emax (human mGluR5) [%] | EC50 (human mGluR5) [µM]
CC1CN([C@H](C)c2ccccc2)C(=O)c2cc(COc3ccccc3)nn21 (single isomer, unassigned) [Example B4, (7*S)-7-methyl-2-(phenoxymethyl)-5-[(1R)-1-phenylethyl]-6,7-dihydropyrazolo[1,5-a]pyrazin-4(5H)-one] | 132 °C | 68.5 | 0.055
CC1CN(Cc2ccccc2)C(=O)c2cc(COc3cccc(F)c3)nn21 (single isomer, unassigned) [Example B10, (7*S)-5-benzyl-2-[(3-fluorophenoxy)methyl]-7-methyl-6,7-dihydropyrazolo[1,5-a]pyrazin-4(5H)-one] | – | 70.5 | 0.0692
CC1CN(Cc2ccccc2)C(=O)c2cc(COc3ccccc3)nn21 (single isomer, unassigned) [Example B14] | 97.7 °C | 69.5 | 0.0603
CC1CN(Cc2ccccc2)C(=O)c2cc(COc3cccc(C#N)c3)nn21 (single isomer, unassigned) [Example B53] | – | 65 | 0.525
CC1CN(Cc2ccccc2)C(=O)c2cc(COc3ccc(F)cc3)nn21 (single isomer, unassigned) [Example B54] | – | 69.5 | 0.0933
Cc1cccc(OCc2cc3n(n2)C(C)CN(Cc2ccccc2)C3=O)c1 (single isomer, unassigned) [Example B55] | – | 69.5 | –
COc1cccc(CN2CCn3nc(COc4ccccc4)cc3C2=O)n1 [Example B1, 5-[(6-methoxypyridin-2-yl)methyl]-2-(phenoxymethyl)-6,7-dihydropyrazolo[1,5-a]pyrazin-4(5H)-one] | 97.7 °C | 68 | 0.0912
O=C1c2cc(COc3ccccc3)nn2CCCN1Cc1ccccc1 [Example B2, 5-benzyl-2-(phenoxymethyl)-5,6,7,8-tetrahydro-4H-pyrazolo[1,5-a][1,4]diazepin-4-one] | 94.6 °C | 64 | 0.0871
Cc1cccc(CN2CCn3nc(COc4ccccc4)cc3C2=O)n1 [Example B3, 5-[(6-methylpyridin-2-yl)methyl]-2-(phenoxymethyl)-6,7-dihydropyrazolo[1,5-a]pyrazin-4(5H)-one] | 113.4 °C | 68 | 0.302
O=C1c2cc(COc3ccccc3)nn2CCN1Cc1ccc(F)cn1 [Example B5, 5-[(5-fluoropyridin-2-yl)methyl]-2-(phenoxymethyl)-6,7-dihydropyrazolo[1,5-a]pyrazin-4(5H)-one] | 126.5 °C | 69 | 0.55
O=C1c2cc(COc3ccccc3)nn2CCN1Cc1ncccc1Cl [Example B6, 5-[(3-chloropyridin-2-yl)methyl]-2-(phenoxymethyl)-6,7-dihydropyrazolo[1,5-a]pyrazin-4(5H)-one] | – | 76 | 0.12
O=C1c2cc(COc3ccccc3)nn2CCN1Cc1ccccc1 [Example B7, 5-benzyl-2-(phenoxymethyl)-6,7-dihydropyrazolo[1,5-a]pyrazin-4(5H)-one] | 91.5 °C | 69 | 0.049
C[C@H](c1ccccc1)N1CCn2nc(COc3ccccc3)cc2C1=O [Example B8, 2-(phenoxymethyl)-5-[(1R)-1-phenylethyl]-6,7-dihydropyrazolo[1,5-a]pyrazin-4(5H)-one] | – | 59.5 | 0.0309
O=C1c2cc(COc3ccccn3)nn2CCN1Cc1ccccc1 [Example B9, 5-benzyl-2-[(pyridin-2-yloxy)methyl]-6,7-dihydropyrazolo[1,5-a]pyrazin-4(5H)-one] | 124.7 °C | 62 | 0.347
O=C1c2cc(COc3cccc(F)c3)nn2CCN1Cc1ccccc1 [Example B11, 5-benzyl-2-[(3-fluorophenoxy)methyl]-6,7-dihydropyrazolo[1,5-a]pyrazin-4(5H)-one] | 104.9 °C | 63 | 0.0468
COc1cnc(CN2CCn3nc(COc4ccccc4)cc3C2=O)nc1 [Example B12] | > 300 °C | 59.5 | 0.0309
CC(c1cccnc1)N1CCn2nc(COc3ccccc3)cc2C1=O (centres unmarked) [Example B13] | > 300 °C (dec.) | 60 | 1.66
O=C1c2cc(COc3ccccc3)nn2CCN1Cc1ccccn1 [Example B17] | 75.3 °C | 69.5 | 1.12
O=C1c2cc(COc3ccccc3)nn2CCN1Cc1cccnc1 [Example B18] | 123.4 °C | 63 | 1.91
O=C1c2cc(COc3ccccc3)nn2CCN1Cc1ccccc1F [Example B19] | 110.6 °C | 69.5 | 0.0437

SMILES | melting point | Emax (human mGluR5) [%] | EC50 (human mGluR5) [µM]
O=C1c2cc(COc3ccccc3)nn2CCN1Cc1cccc(F)c1 [Example B20] | 95 °C | 65 | 0.0479
O=C1c2cc(COc3ccccc3)nn2CCN1Cc1ccc(F)c(F)c1 [Example B21] | 133.2 °C | 68 | 0.0776
O=C1c2cc(COc3ccccc3)nn2CCN1Cc1ccc(F)cc1F [Example B22] | 129.8 °C | 69 | 0.0617
O=C1c2cc(COc3ccccc3)nn2CCN1Cc1cccc(F)c1F [Example B23] | 122.8 °C | 72.5 | 0.0316
O=C1c2cc(COc3ccccc3)nn2CCN1Cc1cc(F)ccc1F [Example B24] | 113.6 °C | 71 | 0.12
COc1ccc(CN2CCn3nc(COc4cccc(C)n4)cc3C2=O)cc1 [Example B29] | 91.2 °C | 37 | > 10
COc1ccc(CN2CCn3nc(COc4cc(C)ccn4)cc3C2=O)cc1 [Example B30] | > 300 °C | 61 | > 10
COc1ccc(CN2CCn3nc(COc4ccccc4)cc3C2=O)cc1 [Example B34] | – | 69 | 0.209
COc1ccccc1CN1CCn2nc(COc3ccccc3)cc2C1=O [Example B38] | – | 63.5 | 0.0407
N#Cc1cccc(OCc2cc3n(n2)CCN(Cc2ccccc2)C3=O)c1 [Example B43] | – | 53 | 0.38
C[C@@H]1Cn2nc(COc3cccc(F)c3)cc2C(=O)N1Cc1ccccc1 [Example B49] | – | 73 | 0.0933
C[C@@H]1Cn2nc(COc3ccccn3)cc2C(=O)N1Cc1ccccc1 [Example B56] | – | 70 | 1
Cc1cccc(OCc2cc3n(n2)C[C@@H](C)N(Cc2ccccc2)C3=O)c1 [Example B57] | – | 64.5 | 0.186
C[C@@H]1Cn2nc(COc3cccc(C#N)c3)cc2C(=O)N1Cc1ccccc1 [Example B58] | – | 59 | 0.468
COc1cccc(CN2CCn3nc(COc4ccccc4)cc3C2=O)c1F [Example B59] | – | 71 | 0.107
COc1cccc(CN2CCn3nc(COc4ccccc4)cc3C2=O)c1Cl [Example B60] | – | 75.5 | 0.0794
COc1ccc(F)cc1CN1CCn2nc(COc3ccccc3)cc2C1=O [Example B61] | – | 66 | 0.0851
O=C1c2cc(COc3ccccc3)nn2CCN1Cc1ncc(F)cn1 [Example B70] | – | 66 | 0.398
O=C1c2cc(COc3ccccc3)nn2CCN1Cc1ccncc1 [Example B102] | – | 68 | 1.78
